Measurements published in US10975354B2, “Transdifferentiated cell populations and methods of use thereof” (ORGENESIS LTD., priority 2017, dated 2021).

Experiments:
DsRed+ cells = assay: Reprogramming of DsRed+ cells with Li followed by pTFs in the presence of HDACi; assay type: cell-based, human; settings: combination with 10 mM Li for 48 hours; 5 mM SB or 1 μM SAHA during 2+1 TD
Description: Wnt-pathway activation was induced by supplementing cell medium with 10 mM Li for 48 hours. Subsequently, cells were transdifferentiated by pancreatic transcription factors (pTFs) in the presence of 5 mM sodium butyrate (SB) (FIG. 44A) or 1 μM suberanilohydroxamic acid (SAHA) (FIG. 44B). […] Bars show ratios of transcript levels of cells treated with HDACi and pTFs compared with cells treated with pTFs alone. Transcript levels were normalized to β-actin transcript levels. N=4 independent experiments with cells from two donors. * P-value<0.05.
Representative HDACi sodium-butyrate (SB) and suberanilohydroxamic acid (SAHA) were used to induce histone hyperacetylation, which is associated with permissive chromatin structure. Methods: Primary liver cells were incubated with 10 mM lithium (Li) for 48 hours to activate Wnt signaling. Subsequently, cells were contacted with pancreatic transcription factors according to the “2+1” transdifferentiation protocol described in Example 12 in the presence of 5 mM SB (Na-Butyrate) or 1 μM SAHA.

eGFP+ cells [1] = assay: Transdifferentiation of DKK-treated eGFP+ cells in the presence of sodium butyrate; assay type: cell-based, human; settings: DKK 3 μg/ml for 48 hours, then pTFs with 5 mM sodium butyrate
Description: Wnt-pathway activation was induced by supplementing cell medium with 10 mM Li for 48 hours. Subsequently, cells were transdifferentiated by pancreatic transcription factors (pTFs) in the presence of 5 mM sodium butyrate (SB) (FIG. 44A) or 1 μM suberanilohydroxamic acid (SAHA) (FIG. 44B). In the GFP+ cell population, a similar effect was observed when Wnt-pathway was inhibited by supplementing serum-based medium with 3 μg/ml Dickkopf (DKK) for 48 hours followed by the transdifferentiation of cells by pTFs in the presence of 5 mM sodium butyrate (SB) (FIG. 44C). Bars show ratios of transcript levels of cells treated with HDACi and pTFs compared with cells treated with pTFs alone. Transcript levels were normalized to β-actin transcript levels. N=4 independent experiments with cells from two donors. * P-value<0.05.
Similarly, SB (HDAC inhibitor) treatment alleviated the effect of Wnt signaling inhibition of eGFP+ cells (FIG. 44C).

eGFP+ cells [2] = assay: Pancreatic hormones gene expression (real-time RT-PCR) in eGFP+ cells supplemented with DKK3; assay type: cell-based, human; settings: Ad-CMV-Pdx-1, 5 days, DKK3 0.5 μg/ml
Description: Pancreatic hormones gene expression was studied by Quantitative real-time RT-PCR compared to the control-treated cells.
Total RNA was isolated and cDNA was prepared and amplified, as described previously (Ber et al, (2003) J Biol Chem 278: 31950-31957; Sapir et al, (2005) ibid). Quantitative real-time RT-PCR was performed using ABI Step one plus sequence Detection system (Applied Biosystems, CA, USA), as described previously (Sapir et al, (2005) ibid; Meivar-Levy et al, (2007) ibid; Aviv et al, (2009) J Biol Chem 284: 33509-33520).

adult human liver cells = assay: Glucose-regulated insulin secretion (radioimmunoassay) with Ad-CMV-Pdx-1 supplemented with Wnt3A or DKK3; assay type: cell-based; settings: Ad-CMV-Pdx-1 and soluble factors, 5 days; 2 mM then 17.5 mM glucose
Description: Adult human liver cells were treated with Ad-CMV-Pdx-1 and soluble factors, as previously reported, supplemented with Wnt3A (50 ng/ml R&D or DKK3 (3 μg/ml R&D). After 5 days, insulin secretion was analyzed by static incubations at low followed by high glucose concentrations (2 mM and 17.5 mM glucose in KRB, respectively). Insulin secretion is measured using the human insulin radioimmunoassay kit (DPC; n≥8 from 3 different experiments) and compared to untreated cells (Cont). *p<0.01 compared to Ad-CMV-Pdx-1 alone, using Student's t-test analysis.
C-peptide and insulin secretion were measured by static incubations of primary cultures of adult liver cells 6 days after the initial exposure to the viral treatment, as described (Sapir et al, (2005) ibid; Meivar-Levy et al, (2007) ibid; Aviv et al, (2009) ibid). The glucose-regulated C-peptide secretion was measured at 2 mM and 17.5 mM glucose, which was determined by dose-dependent analyses to maximally induce insulin secretion from transdifferentiated liver cells, without having adverse effects on treated cells function (Sapir et al, (2005) ibid; Meivar-Levy et al, (2007) ibid; Aviv et al, (2009) ibid). C-peptide secretion was detected by radioimmunoassay using the human C-peptide radioimmunoassay kit (Linco Research, St. Charles, Mo.; <4% cross-reactivity to human proinsulin). […]

human liver cultures = assay: Glucose stimulated insulin secretion with WNT3A or DKK added during TD; assay type: cell-based; settings: added during TD (ectopic pTFs); measured five days later
Description: FIGS. 41A-41G show active WNT signaling controls the activation of the pancreatic lineage in liver. (FIG. 41A) Efficient reprogramming of liver to pancreas relies on active WNT signaling. WNT signaling was activated by Wnt3A, or, alternatively, blocked by DKK, concomitantly to ectopic pTFs expression (TD) in human liver cultures. Glucose stimulated Insulin secretion was measured five days later. Results are average and standard error (SE) of 3-6 repeats from 3 different donors. * P-value<0.05; ** P-value<0.005; *** P-value<0.0005. […] Efficiency of reprogramming was measured by the activation of pancreatic genes expression and relative insulin secretion induced by high glucose concentrations (17.5 mM). […]
100,000 cells/well were seeded in a 6-wells plate in a low glucose DMEM media supplemented with 2 mM L-glutamine, 10% serum, antibiotics, 10 mM Nicotinamide, 20 ng/ml EGF, and 5 nM exendin4. […] After 48 hours the cells were harvested, counted, and 100,000 cells were infected with 50MOI of Ad-MafA and re-plated as above. 72 hours later the cells were analyzed for gene expression and insulin secretion, as detailed below. […]
Glucose regulated insulin secretion (FIGS. 38D and 38F, and 41A) was measured by radioimmunoassay kit (DPC, Los-Angeles, Calif.) as described previously (Berneman-Zeitouni D et al., ibid). […]

| Molecule | reprogramming of DsRed+ cells (expression of PDX-1, Isl-1, Pax-4, Nkx6.1) (DsRed+ cells) | effect of Wnt signaling inhibition of eGFP+ cells (eGFP+ cells [1]) | transdifferentiation capacity of eGFP cells (eGFP+ cells [2]) | Pdx-1-induced glucose-regulated insulin secretion (adult human liver cells) | glucose-regulated insulin secretion (human liver cultures) |
| --- | --- | --- | --- | --- | --- |
| O=C(CCCCCCC(=O)Nc1ccccc1)NO [SAHA, suberanilohydroxamic acid] | increased reprogramming |  |  |  |  |
| CCCC(=O)[O-].[Na+] [SB, sodium-butyrate] | increased reprogramming | alleviated |  |  |  |
| DKK3: Dickkopf-related protein 3 (R&D), an inhibitor of the Wnt signaling pathway |  |  | totally abolished | completely abolished |  |
| Wnt3A: WNT3A protein (R&D), Wnt-pathway agonist (protein, UniProt P56704 19-352, looked up) Protein Wnt-3a: SYPIWWSLAVGPQYSSLGSQPILCASIPGLVPKQLRFCRNYVEIMPSVAEGIKIGIQECQHQFRGRRWNCTTVHDSLAIFGPVLDKATRESAFVHAIASAGVAFAVTRSCAEGTAAICGCSSRHQGSPGKGWKWGGCSEDIEFGGMVSREFADARENRPDARSAMNRHNNEAGRQAIASHMHLKCKCHGLSGSCEVKTCWWSQPDFRAIGDFLKDKYDSASEMVVEKHRESRGWVETLRPRYTYFKVPTERDLVYYEASPNFCEPNPETGSFGTRDRTCNVSSHGIDGCDLLCCGRGHNARAERRREKCRCVFHWCCYVSCQECTRVYDVHTCK |  |  |  | increased | marked increase |
